Measured values from PubChem BioAssay AID330 (DTP/NCI, 2004).
Where “and” joins values, the source holds several entries; their conditions need not be identical. Equal values may be shown once. Inconclusive results and toxic doses are left out. How the source made its calls: active means survival T/C of 150% or more; inactive means T/C below 125% in these data.

Test system: P388 leukemia ip, CD2F1 mice, survival T/C
Assay: NCI In Vivo Anticancer Drug Screen. Data for tumor model P388 Leukemia (intraperitoneal) in CD2F1 (CDF1) mice
Conditions: endpoint: median survival time, higher = longer survival
Summary of the method: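 Mice carrying the transplanted tumor received test compound or vehicle. Survival was recorded in each group, and the value is the treated-group measurement divided by that of the vehicle-treated control group.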

[1] = dose: 12.5 mg/kg/injection, schedule: Q01DX005 (ip), vehicle: saline
[2] = dose: 50.0 mg/kg/injection, schedule: Q01DX009 (ip), vehicle: Klucel (hydroxypropylcellulose) (HPC)
[3] = dose: 100.0 mg/kg/injection, schedule: Q01DX009 (ip), vehicle: Klucel (hydroxypropylcellulose) (HPC)
[4] = dose: 60.0 mg/kg/injection, schedule: Q01DX005 (ip), vehicle: saline with Tween-80
[5] = dose: 120.0 mg/kg/injection, schedule: Q01DX005 (ip), vehicle: saline with Tween-80
[6] = dose: 240.0 mg/kg/injection, schedule: Q01DX005 (ip), vehicle: saline with Tween-80
[7] = dose: 25.0 mg/kg/injection, schedule: Q01DX005 (ip), vehicle: Klucel (hydroxypropylcellulose) (HPC)
[8] = dose: 50.0 mg/kg/injection, schedule: Q01DX005 (ip), vehicle: Klucel (hydroxypropylcellulose) (HPC)
[9] = dose: 100.0 mg/kg/injection, schedule: Q01DX005 (ip), vehicle: Klucel (hydroxypropylcellulose) (HPC)
[10] = dose: 200.0 mg/kg/injection, schedule: Q01DX005 (ip), vehicle: Klucel (hydroxypropylcellulose) (HPC)
[11] = dose: 50.0 mg/kg/injection, schedule: Q01DX005 (ip), vehicle: saline with Tween-80
[12] = dose: 100.0 mg/kg/injection, schedule: Q01DX005 (ip), vehicle: saline with Tween-80
[13] = dose: 50.0 mg/kg/injection, schedule: Q01DX009 (ip), vehicle: saline with Tween-80
[14] = dose: 100.0 mg/kg/injection, schedule: Q01DX009 (ip), vehicle: saline with Tween-80
[15] = dose: 200.0 mg/kg/injection, schedule: Q01DX009 (ip), vehicle: saline with Tween-80

Measured: T/C

[Cl][Pd][Cl].[NH-]C(CO)C(=O)O (centres undefined)
inactive: [1] 94 % of control | dose: 25.0 mg/kg/injection, schedule: Q01DX005 (ip), vehicle: saline 102 % of control | dose: 50.0 mg/kg/injection, schedule: Q01DX005 (ip), vehicle: saline 106 % of control and 98 % of control

CN(C)c1c(-c2ccc(Cl)cc2)cc(-c2ccccc2)[nH]c1=O
inactive: dose: 1.56 mg/kg/injection, schedule: Q01DX009 (ip), vehicle: Klucel (hydroxypropylcellulose) (HPC) 101 % of control | dose: 3.13 mg/kg/injection, schedule: Q01DX009 (ip), vehicle: Klucel (hydroxypropylcellulose) (HPC) 101 % of control | dose: 6.25 mg/kg/injection, schedule: Q01DX009 (ip), vehicle: Klucel (hydroxypropylcellulose) (HPC) 100 % of control | dose: 12.5 mg/kg/injection, schedule: Q01DX009 (ip), vehicle: Klucel (hydroxypropylcellulose) (HPC) 99 % of control and 89 % of control | [2] 101 % of control | [3] 106 % of control

CC1(C)OC2OC3C(Br)C(=O)OC3C2O1 (centres undefined)
inactive: [4] 90 % of control | [5] 94 % of control | [6] 97 % of control

COc1ccc(OC)c2c(Cl)cc(N)nc12
inactive: [7] 102 % of control | [8] 106 % of control | [9] 101 % of control | [10] 102 % of control

Cc1cc(C)nc(NS(=O)(=O)c2ccc(N=c3c4ccccc4n(Cc4ccccc4)c4ccccc34)cc2)n1
inactive: [11] 98 % of control | [12] 88 % of control

CCCCCCCCCCCCCCCCCc1n[nH]c(=S)o1
inactive: [13] 99 % of control | [14] 99 % of control | [15] 98 % of control

CC1CC(=O)N1C(=O)CCN=C=S (centres undefined)
inactive: [4] 111 % of control | [5] 120 % of control | [6] 117 % of control

C=CCN=C(NC#N)SC
inactive: [2] 103 % of control | [3] 111 % of control

Oc1cc2c(cc1O)CN1CCc3cc(O)c(O)cc3C1C2 (centres undefined)
inactive: dose: 100.0 mg/kg/injection, schedule: Q01DX009 (ip), vehicle: saline 114 % of control | dose: 200.0 mg/kg/injection, schedule: Q01DX009 (ip), vehicle: saline 109 % of control | dose: 400.0 mg/kg/injection, schedule: Q01DX009 (ip), vehicle: saline 101 % of control

CSc1ncnc2c1ncn2C(SC)C(OC(C)=O)C(OC(C)=O)C(OC(C)=O)C(COC(C)=O)OC(C)=O (centres undefined)
inactive: [11] 96 % of control | [12] 97 % of control | dose: 200.0 mg/kg/injection, schedule: Q01DX005 (ip), vehicle: saline with Tween-80 102 % of control

CN(C)c1ccc(/[N+]([O-])=N/N2C(=O)c3ccccc3C2=O)cc1
inactive: [7] 105 % of control | [8] 97 % of control | [9] 101 % of control | [10] 110 % of control

COC(=O)CCCCCCCCCCCCCCCCCCCCCCCCCCCCCCCCC(=O)OC
inactive: dose: 25.0 mg/kg/injection, schedule: Q01DX001 (ip), vehicle: Klucel (hydroxypropylcellulose) (HPC) 88 % of control | dose: 50.0 mg/kg/injection, schedule: Q01DX001 (ip), vehicle: Klucel (hydroxypropylcellulose) (HPC) 88 % of control | dose: 100.0 mg/kg/injection, schedule: Q01DX001 (ip), vehicle: Klucel (hydroxypropylcellulose) (HPC) 87 % of control

CC(C)C(/C=C/c1ccccc1)=N\NS(=O)(=O)c1ccccc1
inactive: dose: 100.0 mg/kg/injection, schedule: Q01DX001 (ip), vehicle: saline with Tween-80 105 % of control | dose: 200.0 mg/kg/injection, schedule: Q01DX001 (ip), vehicle: saline with Tween-80 98 % of control | dose: 400.0 mg/kg/injection, schedule: Q01DX001 (ip), vehicle: saline with Tween-80 96 % of control

CN(C)CCC(C#N)(CCC1CCCCC1)c1ccccc1 (centres undefined)
inactive: dose: 10.0 mg/kg/injection, schedule: Q01DX009 (ip), vehicle: saline 103 % of control | dose: 20.0 mg/kg/injection, schedule: Q01DX009 (ip), vehicle: saline 104 % of control | dose: 40.0 mg/kg/injection, schedule: Q01DX009 (ip), vehicle: saline 103 % of control

C/C(CCl)=N\NC1=NC(C)(CCl)P(=O)(NNc2ncccn2)S1 (centres undefined)
inactive: dose: 3.75 mg/kg/injection, schedule: Q01DX005 (ip), vehicle: saline 104 % of control | dose: 7.5 mg/kg/injection, schedule: Q01DX005 (ip), vehicle: saline 106 % of control | dose: 15.0 mg/kg/injection, schedule: Q01DX005 (ip), vehicle: saline 100 % of control and 113 % of control | dose: 30.0 mg/kg/injection, schedule: Q01DX005 (ip), vehicle: saline 106 % of control and 113 % of control and 97 % of control | dose: 60.0 mg/kg/injection, schedule: Q01DX005 (ip), vehicle: saline 105 % of control and 106 % of control and 107 % of control | dose: 120.0 mg/kg/injection, schedule: Q01DX005 (ip), vehicle: saline 101 % of control

COc1cc(N=Nc2ccccc2)cc(/C=N\NC(=S)Nc2cccc(C)c2)c1O
inactive: [11] 87 % of control

CCSc1nc(C=O)c(Cc2ccc(Br)cc2)c(=O)[nH]1
inactive: dose: 100.0 mg/kg/injection, schedule: Q04DX003 (ip), vehicle: saline with Tween-80 110 % of control | dose: 200.0 mg/kg/injection, schedule: Q04DX003 (ip), vehicle: saline with Tween-80 107 % of control | dose: 400.0 mg/kg/injection, schedule: Q04DX003 (ip), vehicle: saline with Tween-80 88 % of control

[O-]/[N+](=C\c1ccccc1)CCO
inactive: [13] 97 % of control | [14] 101 % of control | [15] 106 % of control

C=CCC(CC)C(=O)Cl (centres undefined)
inactive: dose: 75.0 mg/kg/injection, schedule: Q01DX009 (ip), vehicle: saline with Tween-80 93 % of control | dose: 150.0 mg/kg/injection, schedule: Q01DX009 (ip), vehicle: saline with Tween-80 92 % of control | dose: 300.0 mg/kg/injection, schedule: Q01DX009 (ip), vehicle: saline with Tween-80 111 % of control

COC(=O)C1c2cc3c(c(O)c2CCC1(C)O)C(=O)c1c(O)cc2c(c1C3=O)OC1OC2(C)C(O)C(N(C)C)C1O (centres undefined)
inactive: dose: 6.25 mg/kg/injection, schedule: Q01DX009 (ip), vehicle: saline 117 % of control | dose: 12.5 mg/kg/injection, schedule: Q01DX009 (ip), vehicle: saline 120 % of control | dose: 25.0 mg/kg/injection, schedule: Q04DX003 (ip), vehicle: saline 115 % of control | dose: 50.0 mg/kg/injection, schedule: Q04DX003 (ip), vehicle: saline 114 % of control | dose: 100.0 mg/kg/injection, schedule: Q04DX003 (ip), vehicle: saline 115 % of control

CC/C(=C(\CC)c1ccc(OCCN(C)C)cc1)c1ccc(OCCN(C)C)cc1
inactive: dose: 6.25 mg/kg/injection, schedule: Q01DX005 (ip), vehicle: saline 104 % of control | [1] 98 % of control

CC(C)=COS(=O)(=O)C(F)(F)F
inactive: dose: 50.0 mg/kg/injection, schedule: Q01DX009 (ip), vehicle: olive oil, sesame oil, peanut oil 99 % of control | dose: 100.0 mg/kg/injection, schedule: Q01DX009 (ip), vehicle: olive oil, sesame oil, peanut oil 96 % of control | dose: 200.0 mg/kg/injection, schedule: Q01DX009 (ip), vehicle: olive oil, sesame oil, peanut oil 90 % of control

C[Si]1(C)N(c2ccccc2)[Si](C)(c2ccccc2)N1c1ccccc1
inactive: [8] 94 % of control | [9] 111 % of control | [10] 111 % of control
